Patent EP4692114A1, “CALCITONIN ANALOGUE, AND DERIVATIVE THEREOF AND USE THEREOF” (Hangzhou Sciwind Biosciences Co., Ltd., priority 2023, dated 2024)
*1 amine or outer side, *2 acyl side, *3 side chain or, on linkers, in order; H or OH if unused. Where a SMILES comes first, the peptide text is derived from it. [ ]: non-standard residue; d: D form. The star is where a group is joined. C22 diacid = O=C(O)CCCCCCCCCCCCCCCCCCCCC(=O)*; C20 diacid = O=C(O)CCCCCCCCCCCCCCCCCCC(=O)*; γGlu = O=C(O)[C@H](CCC(=O)[*:2])N[*:1]; βAsp = O=C(O)[C@H](CC(=O)[*:2])N[*:1]; AEEA = NCCOCCOCC(=O)O; Inp = O=C(O)C1CCNCC1

Target: T1, human amylin receptors (Homo sapiens, UniProt O60896+P30988)
T1 sequence (P30988 25-474): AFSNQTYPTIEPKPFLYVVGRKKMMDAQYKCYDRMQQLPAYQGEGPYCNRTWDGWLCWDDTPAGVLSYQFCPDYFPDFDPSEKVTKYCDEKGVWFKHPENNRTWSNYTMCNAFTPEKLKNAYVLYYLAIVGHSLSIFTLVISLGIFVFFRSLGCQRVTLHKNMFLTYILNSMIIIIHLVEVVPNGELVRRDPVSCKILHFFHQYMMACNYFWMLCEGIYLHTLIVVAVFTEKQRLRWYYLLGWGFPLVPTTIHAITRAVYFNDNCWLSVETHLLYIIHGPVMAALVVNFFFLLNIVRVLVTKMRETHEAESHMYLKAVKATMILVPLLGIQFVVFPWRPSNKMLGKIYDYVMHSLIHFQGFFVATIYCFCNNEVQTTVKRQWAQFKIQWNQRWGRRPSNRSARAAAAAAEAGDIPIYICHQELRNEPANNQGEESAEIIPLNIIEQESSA
T1 sequence (O60896 24-148 partner): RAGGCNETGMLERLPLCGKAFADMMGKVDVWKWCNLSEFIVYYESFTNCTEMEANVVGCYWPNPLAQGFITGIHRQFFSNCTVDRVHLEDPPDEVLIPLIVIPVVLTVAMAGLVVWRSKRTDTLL
Assay: Luciferase assay of amylin (amylin receptor/CRE-luc cell line);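 note: agonist potency from luminescence of cAMP response element-driven luciferase, EC50 derived from a standard curve of signal versus compound concentration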
Type: cell-based
Details: stably transfected amylin receptor/CRE-luc CHO cells (CHO-K1/Gal5/AMY3), 24 hours incubation, luciferase readout
Description: The objective of this assay is to test the activity or potency of calcitonin analogues or derivatives on human amylin receptors in vitro using a luciferase assay.
Using the standard protocol, CHO-K1/Gal5/AMY3 cells (purchased from GenScript, with the calcitonin receptor and the receptor activity modifying peptide (RAMP) constructed already) were transfected with a plasmid containing a luciferase expression cassette driven by multiple copies of cAMP response elements (CREs). The cells were cultured in an F12 medium containing 200 ug/mL Zeocin, 2 ug/mL puromycin, 100 ug/mL hygromycin, and 400 ug/mL G418 to afford a stably transfected amylin receptor/CRE-luc cell line.
To each well of a white 96-well plate was added 50 µL of the tested sample solution at a respective concentration.
The stably transfected amylin receptor/CRE-luc CHO cells were resuspended in the growth medium at a certain density, and 50 µL of the cell suspension was added at a density of about 20000 cells per well to the white 96-well plate containing the tested sample solution. After incubation of 24 hours at 37°C and 5% CO2, 100 µL of a Luciferase substrate was added to each well, incubated for 3 minutes, and finally was tested for luminescence on SpectraMax L (Molecular Devices) with the software SoftMax Pro 7.0.3 GxP. A standard curve was plotted using the fluorescent intensities for calculation of EC50.

SMILES	EC50 [nM]
CC(C)C[C@H](NC(=O)[C@H](CCCNC(=N)N)NC(=O)CNC(=O)[C@H](CC(C)C)NC(=O)[C@@H](NC(=O)[C@H](C)NC(=O)[C@@H](NC(=O)[C@H](CO)NC(=O)[C@H](CC(C)C)NC(=O)[C@H](CCC(N)=O)NC(=O)[C@H](CO)NC(=O)[C@H](C)NC(=O)COCCOCCNC(=O)COCCOCCNC(=O)C[C@H](NC(=O)CCCCCCCCCCCCCCCCCCC(=O)O)C(=O)O)[C@@H](C)O)C(C)C)C(=O)N[C@@H](CO)C(=O)N[C@@H](CCC(=O)O)C(=O)N[C@@H](CCC(=O)O)C(=O)N[C@@H](CC(C)C)C(=O)N[C@@H](Cc1c[nH]cn1)C(=O)N[C@@H](CCCNC(=N)N)C(=O)N[C@@H](CC(C)C)C(=O)N[C@@H](CCC(N)=O)C(=O)N[C@@H](CC(=O)O)C(=O)N[C@@H](Cc1ccc(O)cc1)C(=O)N1CCC[C@H]1C(=O)N[C@@H](CCCNC(=N)N)C(=O)N[C@H](C(=O)N[C@@H](CC(=O)O)C(=O)N[C@H](C(=O)NCC(=O)N[C@@H](CO)C(=O)NCC(=O)N[C@@H](CO)C(=O)N1CCC[C@H]1C(N)=O)C(C)C)[C@@H](C)O [M59] ({C20 diacid-βAsp-AEEA-AEEA}-ASQLSTAVLGRLSEELHRLQDYPRTDVGSGSP-NH2)	0.017
CC(C)C[C@H](NC(=O)[C@H](CCCNC(=N)N)NC(=O)CNC(=O)[C@H](CC(C)C)NC(=O)[C@@H](NC(=O)[C@H](C)NC(=O)[C@@H](NC(=O)[C@H](CO)NC(=O)[C@H](CC(C)C)NC(=O)[C@H](CCC(N)=O)NC(=O)[C@H](CO)NC(=O)[C@H](C)NC(=O)COCCOCCNC(=O)COCCOCCNC(=O)[C@H](CC(=O)O)NC(=O)CCCCCCCCCCCCCCCCCCC(=O)O)[C@@H](C)O)C(C)C)C(=O)N[C@@H](CO)C(=O)N[C@@H](CCC(=O)O)C(=O)N[C@@H](CCC(=O)O)C(=O)N[C@@H](CC(C)C)C(=O)N[C@@H](Cc1c[nH]cn1)C(=O)N[C@@H](CCCNC(=N)N)C(=O)N[C@@H](CC(C)C)C(=O)N[C@@H](CCC(N)=O)C(=O)N[C@@H](CC(=O)O)C(=O)N[C@@H](Cc1ccc(O)cc1)C(=O)N1CCC[C@H]1C(=O)N[C@@H](CCCNC(=N)N)C(=O)N[C@H](C(=O)N[C@@H](CC(=O)O)C(=O)N[C@H](C(=O)NCC(=O)N[C@@H](CO)C(=O)NCC(=O)N[C@@H](CO)C(=O)N1CCC[C@H]1C(N)=O)C(C)C)[C@@H](C)O [M60] ({C20 diacid}-D[AEEA][AEEA]ASQLSTAVLGRLSEELHRLQDYPRTDVGSGSP-NH2)	0.016
CC(C)C[C@H](NC(=O)[C@H](CCCNC(=N)N)NC(=O)CNC(=O)[C@H](CC(C)C)NC(=O)[C@@H](NC(=O)[C@H](C)NC(=O)[C@@H](NC(=O)[C@H](CO)NC(=O)[C@H](CC(C)C)NC(=O)[C@H](CCC(N)=O)NC(=O)[C@H](CO)NC(=O)[C@H](C)NC(=O)COCCOCCNC(=O)COCCOCCNC(=O)C1CCN(C(=O)CCCCCCCCCCCCCCCCCCC(=O)O)CC1)[C@@H](C)O)C(C)C)C(=O)N[C@@H](CO)C(=O)N[C@@H](CCC(=O)O)C(=O)N[C@@H](CCC(=O)O)C(=O)N[C@@H](CC(C)C)C(=O)N[C@@H](Cc1c[nH]cn1)C(=O)N[C@@H](CCCNC(=N)N)C(=O)N[C@@H](CC(C)C)C(=O)N[C@@H](CCC(N)=O)C(=O)N[C@@H](CC(=O)O)C(=O)N[C@@H](Cc1ccc(O)cc1)C(=O)N1CCC[C@H]1C(=O)N[C@@H](CCCNC(=N)N)C(=O)N[C@H](C(=O)N[C@@H](CC(=O)O)C(=O)N[C@H](C(=O)NCC(=O)N[C@@H](CO)C(=O)NCC(=O)N[C@@H](CO)C(=O)N1CCC[C@H]1C(N)=O)C(C)C)[C@@H](C)O [M62] ({C20 diacid-Inp-AEEA-AEEA}-ASQLSTAVLGRLSEELHRLQDYPRTDVGSGSP-NH2)	0.016
CC(C)C[C@H](NC(=O)[C@H](CCCNC(=N)N)NC(=O)CNC(=O)[C@H](CC(C)C)NC(=O)[C@@H](NC(=O)[C@H](C)NC(=O)[C@@H](NC(=O)[C@H](CO)NC(=O)[C@H](CC(C)C)NC(=O)[C@H](CCC(N)=O)NC(=O)[C@H](CO)NC(=O)[C@H](C)NC(=O)COCCOCCNC(=O)COCCOCCNC(=O)COCCOCCNC(=O)COCCOCCNC(=O)CC[C@H](NC(=O)CCCCCCCCCCCCCCCCCCC(=O)O)C(=O)O)[C@@H](C)O)C(C)C)C(=O)N[C@@H](CO)C(=O)N[C@@H](CCC(=O)O)C(=O)N[C@@H](CCC(=O)O)C(=O)N[C@@H](CC(C)C)C(=O)N[C@@H](Cc1c[nH]cn1)C(=O)N[C@@H](CCCNC(=N)N)C(=O)N[C@@H](CC(C)C)C(=O)N[C@@H](CCC(N)=O)C(=O)N[C@@H](CC(=O)O)C(=O)N[C@@H](Cc1ccc(O)cc1)C(=O)N1CCC[C@H]1C(=O)N[C@@H](CCCNC(=N)N)C(=O)N[C@H](C(=O)N[C@@H](CC(=O)O)C(=O)N[C@H](C(=O)NCC(=O)N[C@@H](CO)C(=O)NCC(=O)N[C@@H](CO)C(=O)N1CCC[C@H]1C(N)=O)C(C)C)[C@@H](C)O [M63] ({C20 diacid-γGlu-AEEA-AEEA-AEEA-AEEA}-ASQLSTAVLGRLSEELHRLQDYPRTDVGSGSP-NH2)	0.037
CC(C)C[C@H](NC(=O)[C@H](CCCNC(=N)N)NC(=O)CNC(=O)[C@H](CC(C)C)NC(=O)[C@@H](NC(=O)[C@H](C)NC(=O)[C@@H](NC(=O)[C@H](CO)NC(=O)[C@H](CC(C)C)NC(=O)[C@H](CCC(N)=O)NC(=O)[C@H](CO)NC(=O)[C@H](C)NC(=O)CC[C@H](NC(=O)CCCCCCCCCCCCCCCCCCCCC(=O)O)C(=O)O)[C@@H](C)O)C(C)C)C(=O)N[C@@H](CO)C(=O)N[C@@H](CCC(=O)O)C(=O)N[C@@H](CCC(=O)O)C(=O)N[C@@H](CC(C)C)C(=O)N[C@@H](Cc1c[nH]cn1)C(=O)N[C@@H](CCCNC(=N)N)C(=O)N[C@@H](CC(C)C)C(=O)N[C@@H](CCC(N)=O)C(=O)N[C@@H](CC(=O)O)C(=O)N[C@@H](Cc1ccc(O)cc1)C(=O)N1CCC[C@H]1C(=O)N[C@@H](CCCNC(=N)N)C(=O)N[C@H](C(=O)N[C@@H](CC(=O)O)C(=O)N[C@H](C(=O)NCC(=O)N[C@@H](CO)C(=O)NCC(=O)N[C@@H](CO)C(=O)N1CCC[C@H]1C(N)=O)C(C)C)[C@@H](C)O [M65] ({C22 diacid-γGlu}-ASQLSTAVLGRLSEELHRLQDYPRTDVGSGSP-NH2)	0.017
CC(C)C[C@H](NC(=O)[C@H](CCCNC(=N)N)NC(=O)CNC(=O)[C@H](CC(C)C)NC(=O)[C@@H](NC(=O)[C@H](C)NC(=O)[C@@H](NC(=O)[C@H](CO)NC(=O)[C@H](CC(C)C)NC(=O)[C@H](CCC(N)=O)NC(=O)[C@H](CO)NC(=O)[C@H](C)NC(=O)COCCOCCNC(=O)COCCOCCNC(=O)CC[C@H](NC(=O)CCCCCCCCCCCCCCCCCCCCC(=O)O)C(=O)O)[C@@H](C)O)C(C)C)C(=O)N[C@@H](CO)C(=O)N[C@@H](CCC(=O)O)C(=O)N[C@@H](CCC(=O)O)C(=O)N[C@@H](CC(C)C)C(=O)N[C@@H](Cc1c[nH]cn1)C(=O)N[C@@H](CCCNC(=N)N)C(=O)N[C@@H](CC(C)C)C(=O)N[C@@H](CCC(N)=O)C(=O)N[C@@H](CC(=O)O)C(=O)N[C@@H](Cc1ccc(O)cc1)C(=O)N1CCC[C@H]1C(=O)N[C@@H](CCCNC(=N)N)C(=O)N[C@H](C(=O)N[C@@H](CC(=O)O)C(=O)N[C@H](C(=O)NCC(=O)N[C@@H](CO)C(=O)NCC(=O)N[C@@H](CO)C(=O)N1CCC[C@H]1C(N)=O)C(C)C)[C@@H](C)O [M66] ({C22 diacid-γGlu-AEEA-AEEA}-ASQLSTAVLGRLSEELHRLQDYPRTDVGSGSP-NH2)	0.017
CC(C)C[C@H](NC(=O)[C@H](CCCNC(=N)N)NC(=O)CNC(=O)[C@H](CC(C)C)NC(=O)[C@@H](NC(=O)[C@H](C)NC(=O)[C@@H](NC(=O)[C@H](CO)NC(=O)[C@H](CC(C)C)NC(=O)[C@H](CCC(N)=O)NC(=O)[C@H](CO)NC(=O)[C@H](C)NC(=O)COCCOCCNC(=O)COCCOCCNC(=O)COCCOCCNC(=O)COCCOCCNC(=O)CC[C@H](NC(=O)CCCCCCCCCCCCCCCCCCCCC(=O)O)C(=O)O)[C@@H](C)O)C(C)C)C(=O)N[C@@H](CO)C(=O)N[C@@H](CCC(=O)O)C(=O)N[C@@H](CCC(=O)O)C(=O)N[C@@H](CC(C)C)C(=O)N[C@@H](Cc1c[nH]cn1)C(=O)N[C@@H](CCCNC(=N)N)C(=O)N[C@@H](CC(C)C)C(=O)N[C@@H](CCC(N)=O)C(=O)N[C@@H](CC(=O)O)C(=O)N[C@@H](Cc1ccc(O)cc1)C(=O)N1CCC[C@H]1C(=O)N[C@@H](CCCNC(=N)N)C(=O)N[C@H](C(=O)N[C@@H](CC(=O)O)C(=O)N[C@H](C(=O)NCC(=O)N[C@@H](CO)C(=O)NCC(=O)N[C@@H](CO)C(=O)N1CCC[C@H]1C(N)=O)C(C)C)[C@@H](C)O [M67] ({C22 diacid-γGlu-AEEA-AEEA-AEEA-AEEA}-ASQLSTAVLGRLSEELHRLQDYPRTDVGSGSP-NH2)	0.017
